Key:
[1] = tested on: knee joints of aged mice; experiment: Systemic i.p. treatment of aged mice: knee joint Safranin O histology and OARSI scoring; type: in vivo, mice C57BL/6; details: 5 mg/kg i.p. daily for 1 month
Protocol: Mice handling. All experiments and protocols were performed in accordance with the institutional guidelines of Stanford University and Administrative Panel on Laboratory Animal Care (APLAC). Aged (24-28 mo.) mice C57BL/6 were obtained from the US National Institute on Aging (NIA) aged colony.
(§1) Histology on mouse joints and human cartilage explants. Mouse joints were fixed in 4% paraformaldehyde overnight, dehydrated in ethanol and embedded in paraffin. Sagittal Sections (5 μm) of the mouse joints were cut by the Histoserv, Inc (Germantown, MD). Cartilage histology was performed by Safranin O (Saf O) staining as previously reported (Smeriglio et al., 2020, Sci Transi. Med. 12:eaax2332). Joints were assessed through blinded grading with the OARSI scoring system. Briefly, sections of mouse joints were stained with Safranin O, and cartilage degeneration was evaluated by assigning numbers 0 to 4 for increasing depth of cartilage degeneration (OARSI scoring system). For the summit scores, five regions were summed.
SW was previously extensively characterized as a specific inhibitor of 15-PGDH in vitro (ki of 0.1 nM).

[2] = tested on: inflammatory cytokine levels; experiment: Luminex cytokine panel on serum of OA mice given intra-articular injections; type: in vivo; details: vs vehicle
Excerpt: (§2) Tibia loading to induce osteoarthritis in young mice. Briefly, mice were anesthetized using 2.5% isoflurane inhalation under 4 L/min of oxygen. The right tibia was positioned vertically, with the ankle upward and the knee downward in deep flexion between loading cups. Using a material testing machine (Instron ElectroPulse E1000), axial compression was applied through the knee via the upper cup, while the lower cup was fixed and linked to the load cell. The ACL tear was confirmed by the release of compressive force during compression. Mice were allowed to progress for 6 weeks after loading (n=8 for each group). Contralateral left limb served as a non-loaded control. Mice blood serum was collected via retro-orbital bleeding to do multiplex autoantibody assay. Mice were sacrificed by cervical dislocation and knee joint were collected for assessment.
(§3) Luminex Assay. This assay was performed at the Human Immune Monitoring Center at Stanford University. Human 76-plex or mouse 48-plex kits (eBioscience/Affymetrix) were used according to the manufacturer's recommendations. Briefly, antibody beads and samples were added to a 96-well plate and incubated at room temperature for 2 hours, followed by overnight incubation at 4° C. with shaking at 500 to 600 rpm. Plates were then washed in a w ash buffer, and biotinylated detection antibody was added for 2 hours at room temperature with shaking. Plate was washed, and streptavidin-phycoerythrin was added After 40 min incubation and washes, reading buffer was added to the wells Plates were read using a Luminex 200 instrument with a lower bound of 50 beads per sample per cytokine. Custom assay control beads were added to all wells. The raw MFI read-outs of all samples were used and analyzed by GraphPad prism.
To test whether 15-PGDH inhibition would be protective in younger, adult mice upon induction of OA, OA was induced in young, adult mice (3 months old) by application of tibial compression on the mouse knee leading to anterior crucial ligament (ACL) rupture. This injury model recapitulates ACL injury frequently observed in human patients. After 1 week of injury, local intra-articular injections of vehicle or SW were given twice a week for 4 weeks. […] Upon blinded scoring of mice knee joints based on the OARSI scoring system, it was observed that the maximal damage score. […] To assess the inflammation in these mice, serum was utilized from vehicle or SW injected mice to test for a 39-plex Luminex cytokine panel. […] These observations corroborated that local 15-PGDH inhibition by SW treatment not only enhances cartilage regeneration but also decreases the inflammation in osteoarthritic mice.

[3] = tested on: cartilage from aged mice; experiment: RNA-seq, differential gene expression and Ingenuity Pathway Analysis of cartilage from aged mice treated systemically; type: in vivo
Protocol: Mice handling. […] Aged (24-28 mo.) mice C57BL/6 were obtained from the US National Institute on Aging (NIA) aged colony.
RNA extraction and library preparation from mouse joints for RNA seq. Knee joint microdissection was performed under a stereoscope to collect cartilage tissue by carefully eliminating any tendons, synovial membrane and meniscal residue and then shaving the cartilage tissue from the underlying bone (Smeriglio et al., 2020, Sci Transl. Med. 12:eaax2332). The isolated cartilage tissue was kept in RNA later (Ambion) and stored at −80° C. for later use. Cartilage tissue was homogenized in Trizol using a bullet blender (Next Advance), followed by RNA extraction and purification using RNeasy micro-kit (Qiagen). cDNA libraries were constructed from 10 ng total RNA using SMARTer stranded Total RNA-Seq kit v3 (Takara Bio). Libraries were sequenced to 25-30×10^6 150-bp paired end reads per sample on an Illumina NovaSeq platform (Novogene, CA).
Differential Gene Expression Analysis. For the RNA-seq analysis, pseudo aligner Salmon was used to quantify the expression of transcripts. Sequences were also aligned against the Mus musculus genome (mm9) using the STAR aligner. A counts matrix containing the number of counts for each gene and each sample was obtained. This matrix was analyzed by DESeq2 to calculate statistical analysis of significance of genes between samples. […] Functional analysis of differentially expressed genes was analyzed using Ingenuity Pathway Analysis (IPA) and DAVID bioinformatic tools.
To identify the downstream molecular pathways through which 15-PGDH may exert its effect on aged cartilage, transcriptomic analysis of vehicle and SW treated cartilage from aged mice (24 mo) was performed and compared to cartilage from young adult mice (3 mo) through RNA-seq.

[4] = tested on: human OA cartilage explants; experiment: Human OA cartilage explants: Ki67 immunostaining; type: cell-based
Excerpt: (§4) Human cartilage tissue collection and treatment. Human cartilage samples were harvested from the surgical knee tissue discards of patients (n>5, age ranging from 55-75 years) undergoing total knee arthroplasty according to approved human subjects institutional review board protocols at Stanford University. Informed, written consent was given by the patients prior to the study. Cylindrical explants (4 mm diameter, 2-4 mm thickness) were extracted from the cartilage samples using standard biopsy punches (Integra, NJ. USA). Cartilage explants were cultured in DMEM-F12 medium supplemented with 10% fetal bovine serum (FBS), 25 μg mL^−1 ascorbic acid, 1× glutamine, and 1× antibiotic-antimycotic solution prior to experiments. To assess the effect of 15-PGDH inhibition, explants were treated with Vehicle (DMSO) or SW (10 uM) for 1 week prior to the assessment. Fresh media was added to the explants every other day.
Cell cycle marker-Ki67 immunostaining. Human OA explants treated with vehicle and SW were fixed and embedded in OCT as described in previous section, 10 μm sections on poly-1-lysine-coated glass slides were obtained using a cryostat. Immunostaining was performed using a standard protocol. […]
(§5) Next, the effects of 15-PGDH inhibition in human OA cartilage were tested. […] Sulphated glycosaminoglycans (sGAG) were also independently quantified through measurements with the DMMB dye. […]

[5] = tested on: human OA cartilage explants; experiment: Human OA cartilage explants: Safranin O staining; type: cell-based; details: SW 10 uM, 1 week, all zones, especially middle and deep zone
Excerpt: as §4
After 1 week of treatment with SW, explants were fixed in 4% paraformaldehyde, washed with PBS, and cryopreserved in 30% sucrose solution overnight. […] Explants from at least five different patient donors and multiple (>5) sections were used for quantitative analysis.
as §5

[6] = tested on: human OA cartilage explants; experiment: Human OA cartilage explants: DMMB assay for sGAG; type: cell-based; details: SW 10 uM, 7 days, vs vehicle
Excerpt: Human cartilage tissue collection and treatment. Human cartilage samples were harvested from the surgical knee tissue discards of patients (n>5, age ranging from 55-75 years) undergoing total knee arthroplasty according to approved human subjects institutional review board protocols at Stanford University. Informed, written consent was given by the patients prior to the study. Cylindrical explants (4 mm diameter, 2-4 mm thickness) were extracted from the cartilage samples using standard biopsy punches (Integra, NJ. USA). […]
1,9-dimethylmethylene Blue (DMMB) and Pico-green Assays. […] Briefly, 20 μL sample was mixed with 200 μL DMMB solution (16 mg DMMB dye dissolved in an aqueous solution of 0.03 m NaCl, 40 mm glycine, 9.5% 0.1 m acetic acid, pH 3.0) and absorbance was measured at 525 nm immediately. […] The DNA content in OA explants was measured by Pico-green assay (Quant-iT Pico-green dsDNA Assay Kit, Invitrogen) as per manufacturer's instructions using the same papain digest supernatant of the OA explants. Quantified sulfated GAG content in OA cartilage explants was normalized to the weight of corresponding explants and the DNA content.
as §5

[7] = tested on: chondrocytes in articular cartilage; experiment: Transmission electron microscopy of chondrocytes in articular cartilage, mitochondria per cell; type: in vivo, mice
Protocol: Transmission electron microscopy (TEM). Knee joints were fixed in Karnovsky's fixative composed of 2% Glutaraldehyde (EMS Cat #16000) and 4% paraformaldehyde (EMS Cat #15700) in 0.1M Sodium Cacodylate (EMS Cat #12300) pH 7.4 for 4 hours at 4° C. Joints were washed with cold PBS 3× and then decalcified in 14% EDTA solution in PBS for 3 days at 4° C. Samples were washed with PBS and placed in cold/aqueous 1% osmium tetroxide (EMS Cat #19100) on a rotator and allowed to warm to room temperature (RT) for 1 hr. Samples were washed 3× with ultrafiltered water followed by staining in 1% uranyl acetate at RT for 2 hours. Samples were then dehydrated in a series of ethanol washes for 30 minutes each at RT beginning at 50%, 70% and finally moved to 4° C. overnight. They were placed in cold 95% EtOH and allowed to warm to RT, changed to 100% 2×, then Propylene Oxide (PO) for 15 min. Samples were infiltrated with EMbed-812 resin (EMS Cat #14120) mixed 1:2, 1:1, and 2:1 with PO for 2 hrs each with leaving samples in 2:1 resin to PO overnight rotating at RT in the hood. The samples were then placed into EMbed-812 for 2 to 4 hours then placed into molds w/labels and fresh resin, orientated and placed into 65° C. oven overnight. […]

[8] = tested on: OA knee joints of adult mice; experiment: Tibia loading (ACL rupture) post-traumatic OA in adult mice, intra-articular injections: Safranin O histology and OARSI scoring; type: in vivo, mice C57BL/6; details: tibial compression OA, intra-articular twice a week for 4 weeks
Excerpt: as §2, §1
To test whether 15-PGDH inhibition would be protective in younger, adult mice upon induction of OA, OA was induced in young, adult mice (3 months old) by application of tibial compression on the mouse knee leading to anterior crucial ligament (ACL) rupture. This injury model recapitulates ACL injury frequently observed in human patients. After 1 week of injury, local intra-articular injections of vehicle or SW were given twice a week for 4 weeks. […]

[9] = target: 15-PGDH (Mus musculus, UniProt Q8VCC1); details: aged muscles, one month of daily intraperitoneal treatment, cited from earlier work
Chain of 15-PGDH (Q8VCC1 whole entry): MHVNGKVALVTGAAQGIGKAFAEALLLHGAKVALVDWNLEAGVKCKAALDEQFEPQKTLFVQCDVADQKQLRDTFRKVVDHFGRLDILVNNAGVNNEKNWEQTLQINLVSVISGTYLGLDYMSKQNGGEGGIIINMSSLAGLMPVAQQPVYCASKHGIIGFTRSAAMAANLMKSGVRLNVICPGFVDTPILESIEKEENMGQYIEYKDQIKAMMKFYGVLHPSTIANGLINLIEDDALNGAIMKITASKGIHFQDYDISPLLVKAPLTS

[10] = tested on: human OA cartilage explants; experiment: Human OA cartilage explants: Luminex cytokine panel on culture medium; type: cell-based; details: culture medium (secretome) of SW treated explants vs vehicle
Excerpt: as §4, §3, §5

[11] = tested on: PGE2 levels; details: in vivo, bone marrow, colon, lung and liver, cited from earlier work
[12] = SW treated aged cartilage, almost to the levels of young cartilage
[13] = aged cartilage, SW vs vehicle, among 301 DEGs

## CCCC[S+]([O-])c1sc2nc(-c3cccs3)cc(-c3ccccc3)c2c1N (stereo not shown) [SW033291, 2-(butylsulfinyl)-4-phenyl-6-(thiophen-2-yl)thieno[2,3-b]pyridin-3-amine]
[1]
  cartilage structure (safranin O staining of knee joints): improved cartilage structure with increased thickness, GAG staining and smoother cartilage surface
[1]; vs control
  OARSI Maximum score: significantly decreased
  OARSI Summit score: significantly decreased
[2]
  CCL4 level: significant downregulation
  CCL7 level: significant downregulation
  CXCL10 level: significant downregulation
  IL2 level: significant downregulation
  IL27 level: significant downregulation
  VEGF level: significant downregulation
  inflammatory cytokine levels: overall reduction
[3]; SW treated aged cartilage
  genes involved in mitochondrial function and metabolism (IPA): significant upregulation
[3]; [12]
  COX5a expression: significantly upregulated
  Ndufa9 expression: significantly upregulated
[3]; [13]
  number of downregulated differentially expressed genes: 154
  number of upregulated differentially expressed genes: 147
[4]; SW vs vehicle treated cells
  Ki67 intensity distribution: increased Ki67 expression
[4]; SW vs vehicle treated explants
  Ki67 positive cells: increase in Ki67 positive cells
[5]
  GAG staining (Safranin O): increase in GAG staining
[6]
  GAG content (sGAG, DMMB dye): significantly increased
[7]; aged cartilage, SW treated vs vehicle treated
  number of mitochondria per cell (TEM images): significant increase
[7]; aged chondrocytes, SW treatment, compared with young cartilage
  mitochondria per cell, quantification with Image J: restoring the mitochondria number in aged chondrocytes to the level of young cartilage
[8]; 3-month-old mice, 6 weeks
  GAG staining and cartilage degradation (Safranin O): higher GAG staining and reduced cartilage degradation
[8]; vs vehicle
  OARSI Maximum score: significantly decreased
  OARSI Summit score: significantly decreased
[9]; LC-MS/MS
  levels of PGE2 and PGD2: concomitant increase
[9]
  15-PGDH specific activity: significantly reduced
[10]
  CCL5 level: significant reduction
  GMCSF level: significant reduction
  IL6 level: significant reduction
[11]
  increase of PGE2 levels: 2 fold
[11]; compared with PGE2 increase
  increase of PGD2 levels: to a lesser extent

From patent US20240100027A1, “INHIBITION OF PROSTAGLANDIN DEGRADING ENZYME 15-PGDH TO IMPROVE JOINT STRUCTURE AND FUNCTION” (The Board of Trustees of the Leland Stanford Junior …, priority 2020, published 2024)
